Measured values reported in the RepoRT retention time repository (doi:10.1007/s00216-021-03828-0).

Key:
Conditions in all cases: stereoisomer not certain
[1] = RP, Merck Supelco Ascentis Express C18, 100 × 2.1 mm, 2 µm, 40 °C, 0.2 mL/min, estimated dead time 1.1 min; A: water + 0.1% formic acid, pH 3; B: acetonitrile + 0.1% formic acid, pH 3; gradient (min/%B) 0/5 2/5 17/99.9 20/99.9
[2] = RP, Merck Supelco Ascentis Express C18, 100 × 2.1 mm, 2 µm, 39 °C, 0.3 mL/min, estimated dead time 0.73 min; A: water + 0.1% formic acid, pH 3; B: acetonitrile + 0.1% formic acid, pH 3; gradient (min/%B) 0/5 2/5 17/99.9 20/99.9
[3] = RP, Merck Supelco Ascentis Express C18, 100 × 2.1 mm, 2 µm, 40 °C, 0.2 mL/min, estimated dead time 1.1 min; A: water + 0.1% formic acid, pH 3; B: acetonitrile + 0.1% formic acid, pH 3; gradient (min/%B) 0/5 2/5 17/99.9 20/99.9; remark: listed apart in the source
[4] = RP, Merck Supelco Ascentis Express C18, 100 × 2.1 mm, 2 µm, 40 °C, 0.35 mL/min, estimated dead time 0.63 min; A: water + 0.1% formic acid, pH 3; B: acetonitrile + 0.1% formic acid, pH 3; gradient (min/%B) 0/5 2/5 17/99.9 20/99.9
[5] = RP, Merck Supelco Ascentis Express C18, 100 × 2.1 mm, 2 µm, 40 °C, 0.4 mL/min, estimated dead time 0.55 min; A: water + 0.1% formic acid, pH 3; B: acetonitrile + 0.1% formic acid, pH 3; gradient (min/%B) 0/5 2/5 17/99.9 20/99.9
[6] = RP, Merck Supelco Ascentis Express C18, 100 × 2.1 mm, 2 µm, 40 °C, 0.25 mL/min, estimated dead time 0.88 min; A: water + 0.1% formic acid, pH 3; B: acetonitrile + 0.1% formic acid, pH 3; gradient (min/%B) 0/5 2/5 17/99.9 20/99.9
[7] = RP, Merck Supelco Ascentis Express C18, 100 × 2.1 mm, 2 µm, 40 °C, 0.4 mL/min, estimated dead time 0.55 min; A: water + 0.1% formic acid, pH 3; B: acetonitrile + 0.1% formic acid, pH 3; gradient (min/%B) 0/5 2/5 17/99.9 20/99.9; remark: listed apart in the source

Row | LC retention time [1] | LC retention time [2] | LC retention time [3] | LC retention time [4] | LC retention time [5] | LC retention time [6] | LC retention time [7] | Structure (SMILES)
1 | 4.85 min | 3.94 min | 4.85 min | 3.61 min | 3.33 min | 4.33 min | 3.37 min | CSc1ncnc2nc[nH]c12 [THIOPURINE S-METHYLETHER]
2 | 2.09 min | 1.36 min | 2.06 min | 1.19 min | 1.04 min | 1.64 min | 1.05 min | Cc1cn(C2CC(O)C(CO)O2)c(=O)[nH]c1=O (centres undefined) [THYMIDINE]
3 | 1.6 min | 1.05 min | 1.59 min | 0.903 min | 0.8 min | 1.27 min | 0.783 min | Cc1c[nH]c(=O)[nH]c1=O [THYMINE]
4 | 8.87 min | 8.11 min | 8.88 min | 7.87 min | 7.65 min | 8.44 min | 7.69 min | NC(Cc1cc(I)c(Oc2cc(I)c(O)c(I)c2)c(I)c1)C(=O)O (centres undefined) [THYROXINE]
5 | 8.28 min | 7.27 min | 8.31 min | 6.86 min | 6.54 min | 7.67 min | 6.59 min | O=C(O)/C=C/c1ccccc1 [TRANS-CINNAMATE]
6 | 1.65 min | 1.05 min | 1.62 min | 0.923 min | 0.81 min | 1.29 min | 0.81 min | O=c1[nH]c(=O)c2ncn(C3OC(CO)C(O)C3O)c2[nH]1 (centres undefined) [XANTHOSINE]
7 | 4.15 min | 3.33 min | 4.17 min | 2.57 min | 2.29 min | 3.61 min | 2.28 min | O=C(O)c1cc(=O)c2cccc(O)c2[nH]1 [XANTHURENATE]
